Eight compounds from ChEMBL document CHEMBL3046532, “QSAR analysis on PfPK7 inhibitors using HQSAR, CoMFA, and CoMSIA” (Med Chem Res, 2012) can be followed below.

pIC50: −log10 of the molar value.

The target in the assay is T1, Putative uncharacterized protein pk7 (Plasmodium falciparum, UniProt O96214).
T1 sequence (O96214 whole entry): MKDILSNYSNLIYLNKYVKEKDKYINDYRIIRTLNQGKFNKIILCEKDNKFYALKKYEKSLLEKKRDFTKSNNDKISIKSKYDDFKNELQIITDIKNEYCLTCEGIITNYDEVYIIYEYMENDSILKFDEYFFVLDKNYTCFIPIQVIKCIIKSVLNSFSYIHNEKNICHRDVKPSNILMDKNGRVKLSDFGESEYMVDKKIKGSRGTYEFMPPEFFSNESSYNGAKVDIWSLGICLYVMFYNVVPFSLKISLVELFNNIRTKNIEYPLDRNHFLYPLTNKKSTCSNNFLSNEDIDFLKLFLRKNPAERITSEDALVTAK
Briefly: Inhibition of Plasmodium falciparum protein kinase 7.
For `CN(Cc1ccc(F)nc1)c1ccc2ncc(-c3ccc(C#N)cc3)n2n1`, the pIC50 is 5.97.

Compound `CN(Cc1ccc(F)nc1)c1ccc2ncc(-c3ccc(C(N)=O)cc3)n2n1` showed a pIC50 of 5.96. This pIC50 and that of the compound before are within 0.2 log units of each other.

Compound `CN(Cc1ccc(F)nc1)c1ccc2ncc(-c3ccc(CO)cc3)n2n1` showed a pIC50 of 4.68. This pIC50 lies 1.28 log units lower than the previous one.

The compound `CN(Cc1ccc(F)nc1)c1ccc2ncc(-c3ccc(N)cc3)n2n1` gave a negative-log IC50 (pIC50) of 4.38.

In the case of `CN(Cc1ccc(F)nc1)c1ccc2ncc(-c3ccc(CNCO)cc3)n2n1`, the pIC50 is 4.47.

Consider `CN(Cc1ccc(F)nc1)c1ccc2ncc(-c3ccc(Cn4ccnc4)cc3)n2n1`, for which the pIC50 is 4.25.

The compound `CN(Cc1ccc(F)nc1)c1ccc2ncc(-c3ccc(CN4CCC(O)CC4)cc3)n2n1` gave a negative-log IC50 (pIC50) of 3.99.

`N#Cc1ccc(-c2cnc3ccc(N[C@H]4CCCNC4)nn23)cc1`: the negative-log IC50 (pIC50) was 5.68.
